# Assay results as given in patent publication US20250074911A1, “MACROCYCLIC BTK INHIBITORS” (Crossfire Oncology Holding B.V., priority 2021, published 2025).
# How the values were obtained:
# [1] = tested on: wt-BTK, BTK C481S, BTK T474I and BTK C481S/T474I expressing 293 cells; assay: Cell based washout, pBTK (Tyr223) Western blot; set-up: species or system human; details: 1000 nM compound 2 hours, washed twice, harvested 0-24 hours; also cell lines expressing mutant BTK
# Experimental: In vitro cellular (mutant) BTK inhibition, and inhibitor wash-out Generation of human wt-BTK, BTK C481S, BTK T474I, and BTK C481S/T474I expressing GripTite 293 MSR cells.
# GripTite 293 MSR cells (Thermo Fisher, cat. no. R79507), here after referred to as 293 cells, were cultured in DMEM/F-12, GIutaMAX™ supplement medium (Thermo Fisher cat. no. 10565018) supplemented with 1% Penicilline/Streptomycine (Thermo Fisher cat. no. 15140122) 10% fetal bovine serum (Biowest, cat. no. Si181 0-500), 1× MEM Non-Essential Amino Acids (Thermo Fisher cat. no. 11140050) and 50 μg/ml Geneticin (Thermo Fisher cat. no. 10131035). Cells were transfected, with pEF6/V5-HisB (Thermo Fisher cat. no. V96120) expression vectors containing either full-length wildtype-BTK (canonical sequence NM_000061), BTK C481 S, BTK T474I or BTK C481 S/T474I (BaseClear) using Lipofectamine™ 3000 (Invitrogen). Because the stop codon at the end of the coding sequence of BTK has been conserved, the His-tag present in the expression vector is not being used. Immediately after transfection, cells were cultured in medium without Geneticin, and after 24 hours 50 μg/ml geneticin was added. 48 hours after transfection, medium was removed and replaced by medium containing both geneticin (50 μg/ml) and blasticidin (10 μg/ml) S HCl (Thermo Fisher, cat. no. A1113903). The resulting transfectants were cultured under blasticidin selection pressure for 18-35 passages to obtain stable wild-type BTK (wt-BTK), BTK C481S, BTK T474I, and BTK C481 S/T474I expressing cell pools. Stability of the (mutant) BTK expression in the 293 cell pools was confirmed by poly-acrylamide gel electrophoresis followed by Western blotting (FIG. 1A). […] For both experiments 10 μg of protein was separated on 4-12% Bis-Tris polyacrylamide gels.
# Wild-type BTK, BTK C481S, BTK T474I or BTK C481 S/T474I expressing 293 cells were lysed in lysis buffer supplemented with protease inhibitors (Merck, cat. no. P8340) and phosphatase inhibitors (Thermo Fisher, cat. no. 78426). The protein concentration was determined with a Pierce BCA protein assay kit (Thermo Fisher, cat. no. 23227). Lysates were diluted to a concentration of 1 μg/μl in NuPage® LDS Sample Buffer (Thermo Fisher, cat. no. NP0008) with 167 mM DTT (Acros Organics, cat. no. 10686841) and denatured for 5 minutes at 95° C. The samples (10 μg protein) were, together with a pre stained protein ladder (Thermo Fisher, cat. no. 26616), separated on 4-12% Bis-Tris polyacrylamide gels (Thermo Fisher, cat. no. NP0324BOX). Separated protein was subsequently transferred, in methanol free transfer buffer (Thermo Fisher, cat. no. 35045), to a nitrocellulose membrane (Thermo Fisher, cat. no. 88018). Blots were first immunologically stained with phospho-BTK (Tyr223) rabbit mAb (Cell Signaling, cat. no. 5082S), and beta-actin rabbit mAb (Cell Signaling, cat. no. 4967S), followed by peroxidase conjugated goat anti-rabbit IgG (Cell Signaling, cat. no. 7074S). Afterwards, antibodies were removed using Western-blot stripping buffer (Thermo Fisher cat. no. 46428) and staining was repeated with a (total-)BTK mouse mAb (Abnova, cat. no. MAB0798), followed by peroxidase conjugated horse anti-mouse IgG (Cell Signaling, cat. no. 7076S). For all blots the colour development was performed with ECL horseradish peroxidase substrate (BioRad, cat. no. 170-5060).
# Wild-type BTK, BTK C481S, BTK T474I, and BTK C481 S/T474I expressing 293 cells were growing exponentially when seeded in culture medium, without blasticidin, at a density of 2,000,000 cells/4 ml/well, in 25 cm^2 cell culture flasks (Greiner Bio-one, cat. no. 690175). Flasks were placed in a 37° C. C02-incubator for 16-24 hours after which 1 ml culture medium containing 5000 nM of the compound of Example 46 or Example 201, or Example 184, or Example 204, or Example 45 or (+/−) Loxo-305, or 0.05% DMSO (no compound) was added. 2 hours after addition of the inhibitors (0h) cells are either collected or washed twice with 5 ml culture medium. […]
# [2] = tested on: wt-TMD8 diffuse large B-cell lymphoma cells; assay: Cell proliferation assay wt-TMD8 (ATPlite, 120 hours); assay type: cell-based; details: B-cell; wt-TMD8 cells, 120 hours, ATPlite; read-out: IC50 wt-TMD8
# Method in brief: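 Readout is percentage growth from ATPlite 1Step luminescence after 5 days (120 h) compound treatment of wt-TMD8 lymphoma cells (1600/well, RPMI-1640 + 10% FBS). Time-zero signal separates growth inhibition from cell kill; 0.3% DMSO wells without compound define maximal growth.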
IC50 [2],SMILES,time for which level of phosphorylated BTK (pBTK (Tyr223)) is prohibited or reduced after wash-out [1]
< 100 nM,N#Cc1ccnc(NC(=O)c2ccc(-c3nc4n5c(cnc(N)c35)/C=C/CCCCCC(=O)N[C@@H]3CC[C@@H]4C3)cc2)c1 [Example 204],at least 6 hours
< 100 nM,Nc1ncc2c3c1c(-c1ccc(C(=O)Nc4cc(C(F)(F)F)ccn4)cc1)nn3[C@@H]1CCC[C@H](C1)NC(=O)CCOC/C=C/2 [Example 25],at least 6 hours
< 100 nM,N#Cc1ccnc(NC(=O)c2ccc(-c3nc4n5c(cnc(N)c35)/C=C/CCOCCC(=O)N[C@@H]3CC[C@@H]4C3)cc2)c1 [Example 201],at least 6 hours
< 100 nM,N#Cc1ccnc(NC(=O)c2ccc(-c3nc4n5c(cnc(N)c35)/C=C/CCCCCC(=O)N[C@@H]3CCC[C@@H]4C3)cc2)c1 [Example 184],at least 6 hours
< 100 nM,C[C@@H]1CC(=O)N[C@@H]2CCC[C@H](C2)n2nc(-c3ccc(C(=O)Nc4cc(C(F)(F)F)ccn4)cc3)c3c(N)ncc(c32)/C=C/CCN1 [Example 45],at least 6 hours
